Measured values: PubChem BioAssay AID1259411 (Chemical Carcinogenesis Research Information System (CCRIS), 2018)
The source made the active and inactive calls. No rule for the calls is given here.

Tested on: rodent carcinogenicity bioassays, tumor incidence
Experiment: CCRIS carcinogenicity studies
Procedure, shortened: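 Archive of carcinogenicity, mutagenicity, tumor promotion and tumor inhibition results drawn from journals, NCI reports and other sources, expert-reviewed; covers 1985-2011 and is no longer updated.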

SMILES: CCSC(=O)N(CC(C)C)CC(C)C
- carcinogen call (Species: Mouse, Strain/Sex: CD-1/Female (50/sex/group), Route: Oral, Dose: 0, 20, 80, 320 mg/kg/d in diet for 2 yrs, Dose: 0, 20, 80, 320 mg/kg/d in diet for 2 yrs): inactive; negative; probable purity of 97-98%
- carcinogen call (Species: Mouse, Strain/Sex: CD-1/Male (50/sex/group), Route: Oral, Dose: 0, 20, 80, 320 mg/kg/d in diet for 2 yrs, Dose: 0, 20, 80, 320 mg/kg/d in diet for 2 yrs): inactive; negative; probable purity of 97-98%
- carcinogen call (Species: Rat, Strain/Sex: Sprague-Dawley/Female (70/sex/group), Route: Oral, Dose: 0, 50, 100, 200, 400 mg/kg/d in diet for 12, 18, or 24 mo, Dose: 0, 50, 100, 200, 400 mg/kg/d in diet for 12, 18, or 24 mo): inactive; negative; probable purity of 97-98% (there were probably 10 animals in each inte
- carcinogen call (Species: Rat, Strain/Sex: Sprague-Dawley/Male (70/sex/group), Route: Oral, Dose: 0, 50, 100, 200, 400 mg/kg/d in diet for 12, 18, or 24 mo, Dose: 0, 50, 100, 200, 400 mg/kg/d in diet for 12, 18, or 24 mo): inactive; negative; probable purity of 97-98% (there were probably 10 animals in each inte

SMILES: N#Cc1ccc(C/C(=N\NC(=O)Nc2ccc(OC(F)(F)F)cc2)c2cccc(C(F)(F)F)c2)cc1
- carcinogen call (Species: Mouse, Strain/Sex: CD-1/Female (65/Group), Route: Oral, Dose: 0 (aqueous carboxymethylcellulose), 100, 250, 1000 mg/kg/day of 96.3% metaflumizone by gavage for 18 mo, study duration, Dose: 0 (aqueous carboxymethylcellulose), 100, 250, 1000 mg/kg/day of 96.3% metaflumizone by gavage for 18 mo, study duration): inactive; negative
- carcinogen call (Species: Mouse, Strain/Sex: CD-1/Male (65/Group), Route: Oral, Dose: 0 (aqueous carboxymethylcellulose), 100, 250, 1000 mg/kg/day of 96.3% metaflumizone by gavage for 18 mo, study duration, Dose: 0 (aqueous carboxymethylcellulose), 100, 250, 1000 mg/kg/day of 96.3% metaflumizone by gavage for 18 mo, study duration): inactive; negative
- carcinogen call (Species: Rat, Strain/Sex: Sprague-Dawley/Female (80/Group), Route: Oral, Dose: 0 (aqueous carboxymethylcellulose), 30, 60, 300 mg/kg/day (adjusted to 200 mg after 2 weeks of treatment) of 96.3% metaf, Dose: 0 (aqueous carboxymethylcellulose), 30, 60, 300 mg/kg/day (adjusted to 200 mg after 2 weeks of treatment) of 96.3% metaf): inactive; negative
- carcinogen call (Species: Rat, Strain/Sex: Sprague-Dawley/Male (80/Group), Route: Oral, Dose: 0 (aqueous carboxymethylcellulose), 30, 60, 300 mg/kg/day of 96.3% metaflumizone by gavage for 24 mo, study duration 24, Dose: 0 (aqueous carboxymethylcellulose), 30, 60, 300 mg/kg/day of 96.3% metaflumizone by gavage for 24 mo, study duration 24): inactive; negative

SMILES: NNC(=O)c1ccccc1
- carcinogen call (Species: MOUSE, Strain/Sex: SWISS/FEMALE, Route: ORAL, Dose: 0, 0.1% SOLUTION IN DRINKING WATER STARTING AT 6 WK OF AGE AND CONTINUED FOR LIFE FOR AN AVERAGE DAILY INTAKE OF 0, 0.57, Dose: 0, 0.1% SOLUTION IN DRINKING WATER STARTING AT 6 WK OF AGE AND CONTINUED FOR LIFE FOR AN AVERAGE DAILY INTAKE OF 0, 0.57, Tumor Site: Type of Lesion: LUNG: ADENOMA, LUNG: ADENOMA AND ADENOCARCINOMA): active; positive
- carcinogen call (Species: MOUSE, Strain/Sex: SWISS/MALE, Route: ORAL, Dose: 0, 0.01% SOLUTION IN DRINKING WATER STARTING AT 6 WK OF AGE AND CONTINUED FOR LIFE FOR AN AVERAGE DAILY INTAKE OF 0, 0.8, Dose: 0, 0.01% SOLUTION IN DRINKING WATER STARTING AT 6 WK OF AGE AND CONTINUED FOR LIFE FOR AN AVERAGE DAILY INTAKE OF 0, 0.8, Tumor Site: Type of Lesion: LUNG: ADENOMA, LUNG: ADENOMA AND ADENOCARCINOMA): active; positive

SMILES: CCO[Si](CCC1CCC2OC2C1)(OCC)OCC (stereo unspecified)
- carcinogen call (Species: MOUSE, Strain/Sex: C3H/MALE, Route: DERMAL, Dose: 0, 2 MG IN ACETONE 3/WK FOR DURATION OF STUDY (STUDY DURATION: LIFETIME)): inactive; negative

SMILES: CCCCNC(=O)NS(=O)(=O)c1ccc(C)cc1
- carcinogen call (Species: MOUSE, Strain/Sex: B6C3F1/FEMALE, Route: ORAL, Dose: 0, 25000, 50000 PPM IN DIET, Dose: 0, 25000, 50000 PPM IN DIET): inactive; negative
- carcinogen call (Species: MOUSE, Strain/Sex: B6C3F1/MALE, Route: ORAL, Dose: 0, 25000, 50000 PPM IN DIET, Dose: 0, 25000, 50000 PPM IN DIET): inactive; negative
- carcinogen call (Species: RAT, Strain/Sex: F344/FEMALE, Route: ORAL, Dose: 0, 12000, 24000 PPM IN DIET, Dose: 0, 12000, 24000 PPM IN DIET): inactive; negative
- carcinogen call (Species: RAT, Strain/Sex: F344/MALE, Route: ORAL, Dose: 0, 12000, 24000 PPM IN DIET, Dose: 0, 12000, 24000 PPM IN DIET): inactive; negative

SMILES: OCc1ccc2ccc3cccc4ccc1c2c34
- carcinogen call (Species: RAT, Strain/Sex: SPRAGUE-DAWLEY/FEMALE, Route: SUBCUTANEOUS, Dose: 0, 0.2 UMOL IN 0.1 ML SESAME OIL:DMSO (9:1) 1/2 D FOR 20 DOSES (STUDY DURATION: 52 WK)): inactive; negative
